Measured values published in ChEMBL document CHEMBL1201862, “PubChem BioAssay data set” (2004).
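Cells were grown in 96-well plates and exposed to each compound for 48 hours at five concentrations; endpoints were interpolated linearly between bracketing concentrations, or set to the highest concentration if not reached. The concentration for 50% growth inhibition is given as GI50.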 Activity calls are given as the source filed them. No stated cut-off is given here; in the data, active = GI50 up to about 1.1 µM and inactive = higher.

Legend:
Experiment in all cases: growth of human tumour cells (NCI), 48 h
786-0 = tested on: 786-0
A498 = tested on: A498
A549 = tested on: A549
ACHN = tested on: ACHN
BT-549 = tested on: BT-549
CAKI-1 = tested on: CAKI-1
CCRF-CEM = tested on: CCRF-CEM
COLO 205 = tested on: COLO 205
DU-145 = tested on: DU-145
EKVX = tested on: EKVX
HCC 2998 = tested on: HCC 2998
HCT-116 = tested on: HCT-116
HCT-15 = tested on: HCT-15
HL-60 = tested on: HL-60
HOP-62 = tested on: HOP-62
HOP-92 = tested on: HOP-92
HT-29 = tested on: HT-29
Hs-578T = tested on: Hs-578T
IGROV-1 = tested on: IGROV-1
K562 = tested on: K562
KM12 = tested on: KM12
LOX IMVI = tested on: LOX IMVI
M14 = tested on: M14
MCF7 = tested on: MCF7
MDA-MB-231 = tested on: MDA-MB-231
MDA-MB-435 = tested on: MDA-MB-435
MDA-N = tested on: MDA-N
MOLT-4 = tested on: MOLT-4
Malme-3M = tested on: Malme-3M
NCI-H226 = tested on: NCI-H226
NCI-H23 = tested on: NCI-H23
NCI-H460 = tested on: NCI-H460
NCI-H522 = tested on: NCI-H522
NCI/ADR-RES = tested on: NCI/ADR-RES
OVCAR-3 = tested on: OVCAR-3
OVCAR-4 = tested on: OVCAR-4
OVCAR-5 = tested on: OVCAR-5
OVCAR-8 = tested on: OVCAR-8
PC-3 = tested on: PC-3
RPMI-8226 = tested on: RPMI-8226
RXF 393 = tested on: RXF 393
SF-268 = tested on: SF-268
SF-295 = tested on: SF-295
SF-539 = tested on: SF-539
SK-MEL-28 = tested on: SK-MEL-28
SK-MEL-2 = tested on: SK-MEL-2
SK-MEL-5 = tested on: SK-MEL-5
SK-OV-3 = tested on: SK-OV-3
SN12C = tested on: SN12C
SNB-19 = tested on: SNB-19
SNB-75 = tested on: SNB-75
SR = tested on: SR
SW-620 = tested on: SW-620
T47D = tested on: T47D
TK-10 = tested on: TK-10
U-251 = tested on: U-251
UACC-257 = tested on: UACC-257
UACC-62 = tested on: UACC-62
UO-31 = tested on: UO-31

COc1ccc(N2C(=O)C3c4[nH]c5ccc(OCc6ccccc6)cc5c4C4CCC(C(C)C)CC4C3C2=O)cc1 (stereo unspecified)
GI50 (786-0): 8.11 µM (inactive) | GI50 (A498): 5.71 µM (inactive) | GI50 (A549): 50.6 µM (inactive) | GI50 (ACHN): 10.8 µM (inactive) | GI50 (BT-549): 28.6 µM (inactive) | GI50 (CAKI-1): > 30.7 µM (inactive) | GI50 (CCRF-CEM): 12.6 µM (inactive) | GI50 (COLO 205): > 100 µM (inactive) | GI50 (DU-145): > 100 µM (inactive) | GI50 (EKVX): 11 µM (inactive) | GI50 (HCC 2998): > 100 µM (inactive) | GI50 (HCT-116): > 45.8 µM (inactive) | GI50 (HCT-15): > 100 µM | GI50 (HL-60): 1.78 µM (inactive) | GI50 (HOP-62): 8.63 µM (inactive) | GI50 (HOP-92): 32.1 µM (inactive) | GI50 (HT-29): > 100 µM (inactive) | GI50 (Hs-578T): 2.29 µM (inactive) | GI50 (IGROV-1): > 39.6 µM (inactive) | GI50 (K562): 16.7 µM (inactive) | GI50 (KM12): > 100 µM (inactive) | GI50 (LOX IMVI): 80.5 µM (inactive) | GI50 (M14): > 48.6 µM (inactive) | GI50 (MCF7): 99.1 µM (inactive) | GI50 (MDA-MB-231): 10.5 µM (inactive) | GI50 (MDA-MB-435): > 100 µM (inactive) | GI50 (MDA-N): > 100 µM (inactive) | GI50 (MOLT-4): 18.2 µM (inactive) | GI50 (Malme-3M): 21 µM (inactive) | GI50 (NCI-H226): 14.2 µM (inactive) | GI50 (NCI-H23): 17.4 µM (inactive) | GI50 (NCI-H460): 13.9 µM (inactive) | GI50 (NCI-H522): 12.3 µM (inactive) | GI50 (NCI/ADR-RES): 30.2 µM (inactive) | GI50 (OVCAR-3): > 58.5 µM (inactive) | GI50 (OVCAR-4): 19.4 µM (inactive) | GI50 (OVCAR-5): > 40 µM (inactive) | GI50 (OVCAR-8): 15.6 µM (inactive) | GI50 (PC-3): > 89.9 µM (inactive) | GI50 (RPMI-8226): > 72.6 µM (inactive) | GI50 (RXF 393): 13.4 µM (inactive) | GI50 (SF-268): 17.2 µM (inactive) | GI50 (SF-295): 6.4 µM (inactive) | GI50 (SF-539): 6.03 µM (inactive) | GI50 (SK-MEL-28): > 100 µM (inactive) | GI50 (SK-MEL-2): 15.2 µM (inactive) | GI50 (SK-MEL-5): > 100 µM (inactive) | GI50 (SK-OV-3): 17.7 µM (inactive) | GI50 (SN12C): > 100 µM (inactive) | GI50 (SNB-19): 9.33 µM (inactive) | GI50 (SNB-75): 2.23 µM (inactive) | GI50 (SR): 4.41 µM (inactive) | GI50 (SW-620): > 100 µM (inactive) | GI50 (T47D): 33.2 µM (inactive) | GI50 (TK-10): > 30.3 µM (inactive) | GI50 (U-251): 10.8 µM (inactive) | GI50 (UACC-257): > 100 µM (inactive) | GI50 (UACC-62): 29 µM (inactive) | GI50 (UO-31): > 57.1 µM (inactive)

CCCCSc1n/c(=C\c2ccc(N(C)C)cc2)c2nnnn12
GI50 (786-0): > 100 µM (inactive) | GI50 (A498): > 100 µM (inactive) | GI50 (A549): > 100 µM (inactive) | GI50 (ACHN): > 100 µM (inactive) | GI50 (BT-549): > 100 µM (inactive) | GI50 (CAKI-1): > 100 µM (inactive) | GI50 (COLO 205): > 100 µM (inactive) | GI50 (DU-145): > 100 µM (inactive) | GI50 (EKVX): > 100 µM (inactive) | GI50 (HCC 2998): > 100 µM (inactive) | GI50 (HCT-116): > 100 µM (inactive) | GI50 (HCT-15): > 100 µM | GI50 (HL-60): > 100 µM (inactive) | GI50 (HOP-62): > 100 µM (inactive) | GI50 (HOP-92): > 100 µM (inactive) | GI50 (HT-29): > 100 µM (inactive) | GI50 (Hs-578T): > 100 µM (inactive) | GI50 (IGROV-1): > 100 µM (inactive) | GI50 (K562): > 100 µM (inactive) | GI50 (KM12): > 100 µM (inactive) | GI50 (LOX IMVI): > 100 µM (inactive) | GI50 (M14): > 100 µM (inactive) | GI50 (MCF7): > 100 µM (inactive) | GI50 (MDA-MB-231): > 100 µM (inactive) | GI50 (MDA-MB-435): > 100 µM (inactive) | GI50 (MDA-N): > 100 µM (inactive) | GI50 (MOLT-4): > 100 µM (inactive) | GI50 (Malme-3M): > 100 µM (inactive) | GI50 (NCI-H226): > 100 µM (inactive) | GI50 (NCI-H23): > 100 µM (inactive) | GI50 (NCI-H460): > 100 µM (inactive) | GI50 (NCI-H522): > 100 µM (inactive) | GI50 (NCI/ADR-RES): > 100 µM (inactive) | GI50 (OVCAR-3): > 100 µM (inactive) | GI50 (OVCAR-4): > 100 µM (inactive) | GI50 (OVCAR-5): > 100 µM (inactive) | GI50 (OVCAR-8): > 100 µM (inactive) | GI50 (PC-3): > 100 µM (inactive) | GI50 (RPMI-8226): > 100 µM (inactive) | GI50 (RXF 393): > 100 µM (inactive) | GI50 (SF-268): > 100 µM (inactive) | GI50 (SF-295): > 100 µM (inactive) | GI50 (SF-539): > 100 µM (inactive) | GI50 (SK-MEL-28): > 100 µM (inactive) | GI50 (SK-MEL-2): > 100 µM (inactive) | GI50 (SK-OV-3): > 100 µM (inactive) | GI50 (SN12C): > 100 µM (inactive) | GI50 (SNB-19): > 100 µM (inactive) | GI50 (SNB-75): > 100 µM (inactive) | GI50 (SR): > 100 µM (inactive) | GI50 (SW-620): > 100 µM (inactive) | GI50 (T47D): > 100 µM (inactive) | GI50 (TK-10): > 100 µM (inactive) | GI50 (U-251): > 100 µM (inactive) | GI50 (UACC-257): > 100 µM (inactive) | GI50 (UACC-62): > 100 µM (inactive) | GI50 (UO-31): 73.8 µM (inactive)
